{"source": "patent US9642859B2", "about": "“Use of capsazepine and analogs thereof to treat cancer” (THE BOARD OF REGENTS OF THE UNIVERSITY OF TEXAS SYSTEM, priority 2012, dated 2017)", "key": {"SCC4 [1]": {"test_system": "SCC4", "experiment": "Cell cycle analysis by DNA profile FACS, SCC4", "type": "cell-based, human", "settings": "24 hours", "description": "In particular, Table 1 provides additional cell cycle distribution data of OSCC cells (%) treated with 0 μM, 30 μM, 60 μM, or 90 μM CPZ for 24 hours. Data for OSCC cell lines HSC3, SCC4, and SCC25 are also provided in diagrams of FIGS. 1G-1, 1G-2, and 1G-3, respectively."}, "[2]": {"test_system": "breast cancer cell line MDA231", "experiment": "Additional cell proliferation assay, MDA231", "type": "cell-based, human", "settings": "MDA231, 24 hour treatment", "text": "(§1) Observed reductions in cell proliferation in these additional in vitro studies are as follows: SCC4, 40%; HSC3, 50%; SCC25, 80%; Cal27, 15%; MDA231, 56%; and LnCap, 37%."}, "Cal27": {"test_system": "Cal27", "experiment": "Additional cell proliferation assay, Cal27", "type": "cell-based, human", "settings": "Cal27, 24 hour treatment", "text": "as §1"}, "[3]": {"test_system": "OSCC cell lines (HSC3, SCC4, and SCC25)", "experiment": "Apoptosis studies, microscopic analysis of OSCC cells", "type": "cell-based, human", "settings": "CPZ 30, 60 or 90 μM, 24 hrs", "description": "FIGS. 1E-1, 1E-2, and 1E-3. […] In FIG. 1E-1, magnifications of (from left to right) vehicle control HSC3 cells (a) and HSC3 cells treated with 30 μM CPZ (b), 60 μM CP(c), or 90 μM CPZ(d). In FIG. 1E-2, magnifications of (from left to right) vehicle control SCC4 cells (a) and SCC4 cells treated with 30 μM CPZ (b), 60 μM CPZ (c), 90 μM CPZ (d), while, in FIG. 1E-3, magnifications of (from left to right) vehicle control SCC25 cells (a) and SCC25 cells treated with 30 μM CPZ (b), 60 μM CPZ (c), or 90 μM CPZ (d).\nTo determine if reduced cell viability was due to apoptosis, flow-sort analysis and microscopic analysis of cells in three OSCC cell lines (HSC3, SCC4, and SCC25) following treatment were performed. […] (Compare FIGS. 1E-1(b) to (d), FIGS. 1E-2(b)-(d), and FIGS. 1E-3(b) to (d) with FIG. 1E-1(a), FIG. 1E-2(a), and FIG. 1E-3(a), respectively.)"}, "SCC25 xenografts": {"test_system": "SCC25 xenografts", "experiment": "OSCC mouse xenograft model, SCC25", "type": "in vivo, athymic nude (nu/nu) mice", "text": "(§2) Animals. Six week-old female athymic nude (nu/nu) mice were purchased from HARLAN Laboratories (Indianapolis, Ind.) and used in a laminar air-flow cabinet under pathogen-free conditions. They were provided with a 12-h light/dark schedule at controlled temperature and humidity with food and water ad libitum. Mice were allowed to acclimate for at least one week prior to the start of the experiments. All procedures were approved by the UTHSCSA (University of Texas Health Science Center—San Antonio) Institutional Animal Care and Use Committee.\nOSCC Mouse Xenograft Model. Mice were injected subcutaneously in the right flank with 2×10^6 HSC3, SCC4, or SCC25 cells in 0.1 ml of sterile phosphate buffered saline (each of these cell lines is published in scientific literature). Four weeks post-inoculation, tumors had grown to an average volume of 110 mm^3. […] The injections were repeated every other day and for a total of at least 14 days.\n(§3) Treatments. CPZ (5 mg) was diluted in 250 μl of 100% DMSO to yield a final concentration of 20 μg/μl of stock solution. Stock solution (100 m) was subsequently diluted in 7% DMSO in sterile saline generating a final concentration of 1 μg/μl. […] Control xenografts were injected intra-tumorally with 40 μl of vehicle control (7% DMSO). Mice were monitored daily for tumor growth, cachexia, and weight loss. Tumor volumes and body weight were recorded every other day. Tumor volumes were calculated by the formula: (4π/3)×(w/2)2×(l/2), where w=width and l=length. Measurements were made using a digital caliper. At the conclusion of the experiments, mice were anaesthetized with isoflurane and cervical dislocation, blood was collected, and the serum was separated and stored at −80° C. until assayed. Biochemical analysis of serum was performed by the Mouse Metabolic Phenotyping Center (Yale School of Medicine, New Haven, Conn.). Tumors were dissected and placed in 10% neutral buffered formalin (SIGMA, St. Louis, Mo.) and processed for histological analysis."}, "SCC4 [4]": {"test_system": "SCC4", "experiment": "Additional cell proliferation assay, SCC4", "type": "cell-based, human", "settings": "SCC4, 24 hour treatment", "text": "as §1"}, "[5]": {"test_system": "voltage-activated calcium channels", "settings": "cited from earlier work"}, "SCC4 xenografts": {"test_system": "SCC4 xenografts", "experiment": "OSCC mouse xenograft model, SCC4", "type": "in vivo, athymic nude (nu/nu) mice", "text": "as §2\nOSCC Mouse Xenograft Model. Mice were injected subcutaneously in the right flank with 2×10^6 HSC3, SCC4, or SCC25 cells in 0.1 ml of sterile phosphate buffered saline (each of these cell lines is published in scientific literature). Four weeks post-inoculation, tumors had grown to an average volume of 110 mm^3. Mice were then divided into two experimental groups of five animals each, which received the following treatments as intra-tumoral injections: group A, vehicle control (7% DMSO in sterile saline); group B, CPZ treatment (40 μg). The injections were repeated every other day and for a total of at least 14 days.\nas §3, with “Tumors were dissected and placed in 10% neutral buffered formalin (SIGMA, St. Louis, Mo.) and processed for histological analysis.” left out"}}}
{"smiles": "Oc1cc2c(cc1O)CN(C(=S)NCCc1ccc(Cl)cc1)CCC2", "note": "[CPZ, 2-[2-(4-chlorphenyl)ethylamino-thiocarbonyl]-7,8-dihydroxy-2,3,4,5-tetrahydro-1H-2-benzazepine]", "values": [{"measurement": "G0/G1", "setting": "SCC4 [1]; SCC4, CPZ 30 μM", "value": 70.77, "unit": "%"}, {"measurement": "G2/M", "setting": "SCC4 [1]; SCC4, CPZ 30 μM", "value": 12.14, "unit": "%"}, {"measurement": "S", "setting": "SCC4 [1]; SCC4, CPZ 30 μM", "value": 15.08, "unit": "%"}, {"measurement": "SubG1", "setting": "SCC4 [1]; SCC4, CPZ 30 μM", "value": 2.01, "unit": "%"}, {"measurement": "G0/G1", "setting": "SCC4 [1]; SCC4, CPZ 60 μM", "value": 21.03, "unit": "%"}, {"measurement": "G2/M", "setting": "SCC4 [1]; SCC4, CPZ 60 μM", "value": 24.21, "unit": "%"}, {"measurement": "S", "setting": "SCC4 [1]; SCC4, CPZ 60 μM", "value": 21.04, "unit": "%"}, {"measurement": "SubG1", "setting": "SCC4 [1]; SCC4, CPZ 60 μM", "value": 33.72, "unit": "%"}, {"measurement": "G0/G1", "setting": "SCC4 [1]; SCC4, CPZ 90 μM", "value": 15.61, "unit": "%"}, {"measurement": "G2/M", "setting": "SCC4 [1]; SCC4, CPZ 90 μM", "value": 31.57, "unit": "%"}, {"measurement": "S", "setting": "SCC4 [1]; SCC4, CPZ 90 μM", "value": 24.83, "unit": "%"}, {"measurement": "SubG1", "setting": "SCC4 [1]; SCC4, CPZ 90 μM", "value": 27.99, "unit": "%"}, {"measurement": "reduction in cell proliferation", "setting": "[2]", "value": 56, "unit": "%"}, {"measurement": "reduction in cell proliferation", "setting": "Cal27", "value": 15, "unit": "%"}, {"measurement": "apoptosis", "setting": "[3]", "value": "undergo apoptosis"}, {"measurement": "decrease in tumor volume", "setting": "SCC25 xenografts; 20 μg CPZ (1 μg/μl) injections over two weeks, FIG. 13", "value": 57.5, "unit": "%"}, {"measurement": "healing of xenografts", "setting": "SCC25 xenografts; 20 μg CPZ intra-tumoral every other day", "value": "Nearly complete healing"}, {"measurement": "tumor volume", "setting": "SCC25 xenografts; 20 μg CPZ intra-tumoral every other day, two weeks, p<0.05", "value": "significant reduction in tumor volume"}, {"measurement": "reduction in cell proliferation", "setting": "SCC4 [4]", "value": 40, "unit": "%"}, {"measurement": "effect on voltage-activated calcium channels", "setting": "[5]", "value": "Inhibitis"}, {"measurement": "tumor growth rate", "setting": "SCC4 xenografts; 40 μg CPZ intra-tumoral every other day, two weeks, p<0.05", "value": "significant reduction in tumor growth rate"}, {"measurement": "growth of vehicle-control-treated tumors versus CPZ treated", "setting": "SCC4 xenografts; 40 μg CPZ, day sixteen, p<0.01", "value": "two-fold greater"}, {"measurement": "difference in tumor growth rates between vehicle control and treated mice", "setting": "SCC4 xenografts; 60 μg CPZ, repeat experiments (data not shown)", "value": 3, "unit": "fold"}]}
